Experimental data as given in patent US8138304B2, “Neural regeneration peptides and formulations thereof” (Neuren Pharmaceuticals Limited, priority 2005, dated 2012).
Where no end group is shown, it is not given here.

Experiments:
cerebellar microexplants = experiment: Cerebellar microexplant survival assay (3-NP/glutamate injury); type: cell-based, Wistar rat; settings: 100 fM; administered simultaneously with toxins (0.5 mM 3-NP, 0.5 mM glutamate), severe injury
Method: (§1) Laminated cerebellar cortices of the two hemispheres were explanted from a P3, P4, P7 or P8 Wistar rat, cut into small pieces in GBSS with 0.65% D(+)glucose solution, and triturated by a 0.4 mm gauge needle and subsequently pressed through a 125 μm pore size sieve. The obtained microexplants were centrifuged (60×g) 2 times for a medium exchange into serum-free BSA-supplemented START V-medium (Biochrom). Finally, the microexplants were reconstituted in 500 μl STARTV-medium. For culturing, 38 μl of the cell suspension was incubated for 1 hour on a poly-D-lysine-coated cover slip in a 35 mm Petri dish under an atmosphere comprising 5% CO2 in air and 100% humidity at 34° C. Subsequently, the injuring toxins (as described below), NRPs and 1 ml of STARTV-medium were added, and the cultures were evaluated after 2-3 days of culture.
Toxicological and drug administration experiments were designed such that 1/100 parts of toxin and neuroprotective drug were administered simultaneously to the freshly prepared cerebellar microexplants. […]
For statistical analysis of survival, four fields (each field having an area of 0.65 mm^2) of each fixed cerebellar culture with the highest cell densities were chosen, and cells displaying neurite outgrowth were counted (survival assay).

cerebellar cells = experiment: Cerebellar microexplant proliferation assay (BrdU); type: cell-based, Wistar rat
Method: as §1
Toxicological and drug administration experiments were designed such that 1/100 parts of toxin and neuroprotective drug were administered simultaneously to the freshly prepared cerebellar microexplants. Glutamate was prepared as a 50 mM stock solution in MilliQ water while 50 mM 3-nitropropionic acid was pH-adjusted (pH 6.8-7.2) in MilliQ water. The concentrations of the oxidative stress inducing toxin, 3-nitropropionic acid (3-NP), and the excitotoxin, glutamate, in the assay were 0.5 mM each. Lyophilized peptides were reconstituted in PBS or 100 μg/ml human transferrin as a 10 μM stock solution. Subsequently, serial dilutions were made. Cerebellar microexplants were cultivated for 48-72 hours at 34° C., 5% CO2 in air and 100% humidity before they were fixed by increasing amounts of paraformaldehyde (0.4%, 1.2%, 3% and 4%—each treatment 2-3 min).
Using the toxins described above, cerebellar explants were exposed for 24 hours, at the beginning of culturing to dilutions of NRP (survival assay) or NRP and 0.1 μM BrdU (proliferation assay). Subsequently, 80% of the medium was changed without addition of new toxins and NRPs. […]
For statistical analysis of proliferation BrdU-positive nuclei were counted. Statistical significance was measured by Student's t-test.

[1] = system: embryonic mouse neural stem cells (NSCs); experiment: Haptotactic migration assay in injury conditions (activated astroglial monolayer); type: cell-based; settings: 100 fM in lower compartment; TGFβ1 and scratch-activated astrocyte monolayer; 24 hrs
Method: The NRP of SEQ ID NO: 1 was tested for migration-inducing/chemoattractive activity on mouse neural stem cells in a haptotactic migration assay in injury conditions, as described below.
P1 (postnatal day 1) Wistar or Sprague Dawley rats were sacrificed by decapitation. Cortical hemispheres were removed and collected into separate tubes containing 4 ml DMEM—1 cortex per tube. The tissue was mechanically triturated. Cells were transferred into medium using a sterile pipette and filtered through a 100 um cell strainer into a 50 ml centrifuge tube. Each tube was stocked up to 50 ml with DMEM. The tubes were centrifuged for 5 mins at 350×g at 22° C. The cells were resuspended in 40 ml of DMEM+10% FBS. The cells were then seeded into a 12-well plate+5 nM ocadaic acid (to remove neurons by inducing apoptotic cell death) and incubated at 37° C./10% CO2 for 24 hrs […]. The medium+FBS was replaced after 1 day with fresh DMEM+10% FBS. The cell growth was monitored until confluency (14-18 days).
Induction of injuries to the astrocytic monolayer was accomplished using the pharmacological agent transforming growth factor β1 (TGFβ1) and simultaneous mechanical scratching of the monolayer in order to activate astrocytics. […]
Migrated stem cell number of labelled cells were analysed after 24 hrs by a fluorescence-based computerized imaging system (Discovery-1).

[2] = system: purified primary placental trophoblasts; experiment: TNF-alpha-induced cytotoxicity in isolated trophoblasts (survival assay); type: cell-based, human; settings: 24 hrs pre-incubation
Method: Human trophoblast cells were isolated from term placentas with prior approval by the Ethics Committee of the University of Auckland and consent of the patients. The maternal decidua was removed, exposing the villous interior of the placenta. Pieces of villous tissue were cut out and washed thoroughly with PBS before digestion using 0.25% trypsin. The digest was then diluted in Locke Ringers Buffer and DNAase I. Digestion of connective tissue surrounding the placental cells was carried out while stirring the mixture with a magnetic stirrer at a temperature of 37° C. The process was repeated 8 times, with the last 6 supernatants being collected in a bottle containing fetal bovine serum (FBS). The digestion step produced a heterogeneous dispersed cell preparation. The pooled supernates was centrifuged for 7 minutes at 1200 rpm. The cell pellet was resuspended in PBS and centrifuged. This was followed by a 10-minute incubation in erythrocyte lysis buffer with an underlayer of FBS in the last 2 minutes, followed by centrifugation for 7 minutes. Cells were resuspended in M199 medium and recentrifuged.
Cells were then purified using a percoll gradient (5, 20, 30, 35, 40, 50 and 60%). The gradients were prepared with the 60% percoll on the bottom, with decreasing concentrations near the top of the gradient. Cells were introduced into the 5% percoll layer. The cells were centrifuged for 20 minutes at 1200G to separate trophoblasts from debris and other cell types, leaving a band of trophoblasts in the 40% percoll band. This band was collected, the cells washed in M199 medium centrifuged and finally counted and plated according to the methods of Keelan et al, 1998.
In this series of experiments, we studied whether NRP-5RG D6A was able to protect purified primary placental trophoblasts against TNF-alpha mediated injury.
In this study, we plated 30,000 freshly isolated trophoblast cells per well in microtiter well plates followed by pre-incubation with NRP-5RG D6A (SEQ ID NO: 1) for 24 hours. […]

REGRRAAPGRAGG-NH2 (listed as Homo sapiens) [SEQ ID NO: 1, 13-mer NRP analogue]
survival rates, neuroprotection (cerebellar microexplants): 39.1% | proliferation rate compared to the uninjured vehicle (cerebellar cells; 1 pM, BrdU): increased the proliferation rate in these cultures significantly | proliferation compared against injured cells without NRP (cerebellar cells; p<0.01, SEQ ID NO: 1 at 1 pM, SEQ ID NO: 2 at 100 pM): highly proliferation-inducing | more stem cells migrated than vehicle-treated controls [1]: 69.1% | protection from TNF-alpha mediated injury ([2]; 1 pM, TNF-alpha 5 or 50 ng/ml plus interferon gamma, 48 h): 100% | cytoprotection from TNF-alpha mediated injury ([2]; 10 pM): protective | cytoprotection from TNF-alpha mediated injury ([2]; 1 nM): not statistically significant
